Source: patent publication US20130309202A1, “Methods for Improving Liver Function” (The Ohio State University, priority 2012, published 2013)
Values joined by “and” are separate entries in the source; they are usually repeats but may differ in a detail not shown here. Equal entries are not always repeated. Where two headings read alike, the source gives them in different places.

How the values were obtained:
[1] = system: end stage liver disease (ESLD) patients; experiment: Model for End-Stage Liver Disease (MELD) score analysis in supplemented patients awaiting liver transplantation; format: in vivo, human
Source text: Vital organs for study included: cardiac muscle acquired from heart transplant recipients with end stage heart failure (TCP n=3, TE n=5); liver from transplant recipients with end-stage liver (TCP n=3, TE n=4); adipose acquired from abdominal adipose tissue of morbidly obese patients undergoing reconstructive plastic surgery (TCP n=4, TE n=5); and brain tissue from recalcitrant epilepsy patients requiring resection (TE n=4). Control brain samples were taken from autopsy participants donated to science and represent vitamin E concentrations of the general population, without dietary TE consumption (n=4). […] TCP gel capsules contained 200 mg of d-alpha-tocopherol. Vitamin E gel capsules were sealed in blister packs. To determine compliance, study participants mailed empty packages back to the clinic every two weeks. Participant supplementation compliance for the study was >90%. Random-effects linear regression was used to estimate the individual slope and intercepts of the MELD score pre- and post-supplementation for each subject. This was performed separately for TCP and TE supplementation groups. Random-effects regression takes into account the variability within participants due to repeated measures and the variability between participants in order to estimate the standard error. Due to the serendipitous nature of the MELD score findings the length of supplementation was not standardized between patients awaiting liver transplantation. The time scale is in days relative to beginning of the patient's vitamin E supplementation. […] The percent change in the slope from pre- to post-supplementation was calculated. Summary statistics are presented for pre- and post-slope and the percent change across TE and TCP supplementation groups. Wilcoxon rank-sum was used to test differences in slope and percent change in slope between TCP and TE. Wilcoxon signed-rank test was used to compare pre- to post-supplementation.

[2] = human, in vivo
[3] = Brain vitamin E concentration, Surgical Patients Group; details: for Brain vitamin E concentration, 25th percentile / Brain vitamin E concentration, 50th percentile / Brain vitamin E concentration, 75th percentile / Brain vitamin E concentration, mean: n = 4
[4] = Liver vitamin E concentration, Surgical Patients Group
[5] = Abdominal adipose vitamin E concentration, Surgical Patients Group; details: for Adipose vitamin E concentration, 25th percentile / Adipose vitamin E concentration, 50th percentile / Adipose vitamin E concentration, 75th percentile / Adipose vitamin E concentration, mean: 400 mg daily oral
[6] = Heart (cardiac muscle) vitamin E concentration, Surgical Patients Group; details: for Heart vitamin E concentration, 25th percentile / Heart vitamin E concentration, 50th percentile / Heart vitamin E concentration, 75th percentile / Heart vitamin E concentration, mean: 400 mg daily oral
[7] = Skin biopsy vitamin E concentration following oral TE supplementation, Healthy Participants Group; details: TE 400 mg daily, 12 wk vs baseline
[8] = human, in vivo; remark: listed apart in the source
[9] = human, in vivo; remark: listed apart in the source
[10] = molecular target: T1, Tocopherol transfer protein (TTP) (Homo sapiens, UniProt P49638); details: background statement; cited from earlier work
T1 sequence (P49638 1-278): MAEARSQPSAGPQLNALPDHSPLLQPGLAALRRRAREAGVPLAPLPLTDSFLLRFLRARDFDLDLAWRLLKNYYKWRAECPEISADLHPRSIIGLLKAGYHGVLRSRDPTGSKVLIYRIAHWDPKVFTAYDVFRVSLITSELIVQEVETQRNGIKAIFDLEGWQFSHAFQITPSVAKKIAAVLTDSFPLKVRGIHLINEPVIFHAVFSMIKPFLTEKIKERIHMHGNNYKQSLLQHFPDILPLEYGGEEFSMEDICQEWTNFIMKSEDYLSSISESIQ

HMG-CoA reductase = molecular target: T2, HMG-CoA reductase (Homo sapiens, UniProt P04035); details: hepatic enzyme responsible for cholesterol synthesis; background statement; cited from earlier work
T2 sequence (P04035 1-888): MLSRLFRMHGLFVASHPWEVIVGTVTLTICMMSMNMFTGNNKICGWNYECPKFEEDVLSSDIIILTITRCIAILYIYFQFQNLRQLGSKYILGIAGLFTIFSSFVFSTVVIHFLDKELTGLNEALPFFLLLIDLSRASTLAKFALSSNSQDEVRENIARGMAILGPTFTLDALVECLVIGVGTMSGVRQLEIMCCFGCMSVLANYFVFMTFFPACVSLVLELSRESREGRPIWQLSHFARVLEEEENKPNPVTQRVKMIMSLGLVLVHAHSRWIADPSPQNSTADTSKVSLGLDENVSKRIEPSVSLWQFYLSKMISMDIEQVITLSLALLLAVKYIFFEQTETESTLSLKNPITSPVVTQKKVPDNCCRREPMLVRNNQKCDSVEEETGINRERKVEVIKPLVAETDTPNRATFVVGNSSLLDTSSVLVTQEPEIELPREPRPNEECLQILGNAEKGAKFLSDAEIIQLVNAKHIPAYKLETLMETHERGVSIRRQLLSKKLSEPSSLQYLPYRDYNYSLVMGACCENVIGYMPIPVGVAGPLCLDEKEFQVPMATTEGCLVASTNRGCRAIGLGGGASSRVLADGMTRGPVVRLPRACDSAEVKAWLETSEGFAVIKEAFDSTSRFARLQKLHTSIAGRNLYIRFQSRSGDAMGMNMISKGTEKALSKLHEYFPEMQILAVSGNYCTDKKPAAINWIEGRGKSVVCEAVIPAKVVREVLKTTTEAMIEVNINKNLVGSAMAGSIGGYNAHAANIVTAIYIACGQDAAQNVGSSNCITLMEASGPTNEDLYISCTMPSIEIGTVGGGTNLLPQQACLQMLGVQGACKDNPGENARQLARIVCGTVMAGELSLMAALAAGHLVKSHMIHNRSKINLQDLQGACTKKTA

[11] = individual patient, 400 mg daily oral
[12] = TE supplemented, 400 mg daily oral
[13] = TE supplemented, 400 mg daily oral, n = 4

With `Cc1c(C)c2c(c(C)c1O)CC[C@@](C)(CCC[C@H](C)CCC[C@H](C)CCCC(C)C)O2` [TCP, d-alpha-tocopherol] the “participants with a reduction (improvement) in MELD score” value ([1]; ESLD participants, oral supplementation 400 mg daily) was 20%, the “MELD score Pre-supplement Intercept” value ([1]; individual patient awaiting liver transplantation, before supplementation (baseline)) was 16.4 (2×) and 15.7 and 16.5 and 16.9 and the “MELD score Post-supplement Intercept” value [1, 11] was 14.2 (3×) and 14.0 and 14.4. For the same compound, the “MELD score slope % Change (pre vs. post)” value [1, 11] was 372% and −155% and 1028% and 619% and 598%, the “MELD score Post-supplement Slope” value ([1]; individual patient, 400 mg daily oral, slope multiplied by 10,000, time in days) was 483 and −60 and 1139 and 702 and 712 and the “MELD score Pre-supplement Slope” value ([1]; individual patient, before supplementation (baseline), slope multiplied by 10,000, time in days) was 102 (2×) and 109 and 101 and 98.

With `Cc1c(C)c2c(c(C)c1O)CC[C@@](C)(CCC[C@H](C)CCC[C@H](C)CCCC(C)C)O2` [αTCP, d-alpha-tocopherol] the “Brain vitamin E concentration, 25th percentile” value [2] was 41.1 nmol/g, the “Brain vitamin E concentration, 50th percentile” value [2] was 43.3 nmol/g and the “Brain vitamin E concentration, 75th percentile” value [2] was 60.0 nmol/g. For the same compound, the “Brain vitamin E concentration, mean” value [2] was 50.5 nmol/g.

For `Cc1c(O)cc2c(c1C)O[C@](C)(CCC[C@H](C)CCC[C@H](C)CCCC(C)C)CC2` [γTCP], the “Brain vitamin E concentration, 25th percentile” value [2] was 0.98 nmol/g, the “Brain vitamin E concentration, 50th percentile” value [2] was 2.51 nmol/g and the “Brain vitamin E concentration, 75th percentile” value [2] was 10.6 nmol/g. For the same compound, the “Brain vitamin E concentration, mean” value [2] was 5.77 nmol/g.

With `CC(C)=CCC/C(C)=C/CC/C(C)=C/CC[C@]1(C)CCc2cc(O)c(C)c(C)c2O1` [γTE, d-gamma-tocotrienol] the “Brain vitamin E concentration, 25th percentile” value ([3]; TCP supplemented) was 0.03 nmol/g, the “Brain vitamin E concentration, 50th percentile” value ([3]; TCP supplemented) was 0.05 nmol/g and the “Brain vitamin E concentration, 75th percentile” value ([3]; TCP supplemented) was 0.08 nmol/g. For the same compound, the “Brain vitamin E concentration, mean” value ([3]; TCP supplemented) was 0.06 nmol/g, the “brain concentration, TE supplemented compared with control (cadaveric) brain” value ([3]; TE 400 mg daily) was “significantly elevated” and the “Brain vitamin E concentration, 25th percentile” value [3, 12] was 0.47 nmol/g. The “Brain vitamin E concentration, 50th percentile” value [3, 12] was 0.70 nmol/g, the “Brain vitamin E concentration, 75th percentile” value [3, 12] was 1.19 nmol/g and the “Brain vitamin E concentration, mean” value [3, 12] was 0.83 nmol/g. For the same compound, the “liver concentration, TE supplemented compared with TCP supplemented patients” value ([4]; 400 mg daily) was “increased”, the “Liver vitamin E concentration, 25th percentile” value [4, 13] was 0.17 nmol/g and the “Liver vitamin E concentration, 50th percentile” value [4, 13] was 0.45 nmol/g. For the same compound, the “Liver vitamin E concentration, 75th percentile” value [4, 13] was 1.1 nmol/g, the “Liver vitamin E concentration, mean” value [4, 13] was 0.61 nmol/g and the “Adipose vitamin E concentration, 25th percentile” value ([5]; TCP supplemented, n = 4) was 0.71 nmol/g. For the same compound, the “Adipose vitamin E concentration, 50th percentile” value ([5]; TCP supplemented, n = 4) was 1.72 nmol/g, the “Adipose vitamin E concentration, 75th percentile” value ([5]; TCP supplemented, n = 4) was 3.21 nmol/g and the “Adipose vitamin E concentration, mean” value ([5]; TCP supplemented, n = 4) was 1.96 nmol/g. The “adipose concentration relative to controls” value ([5]; TE supplemented vs controls, P<0.05) was about 10 fold, the “Adipose vitamin E concentration, 25th percentile” value ([5]; TE supplemented, n = 5) was 12.4 nmol/g and the “Adipose vitamin E concentration, 50th percentile” value ([5]; TE supplemented, n = 5) was 17.1 nmol/g. The “Adipose vitamin E concentration, 75th percentile” value ([5]; TE supplemented, n = 5) was 23.5 nmol/g, the “Adipose vitamin E concentration, mean” value ([5]; TE supplemented, n = 5) was 17.2 nmol/g and the “heart muscle level, TE supplemented compared with participants receiving TCP alone” value ([6]; 400 mg daily) was “significantly higher”. For the same compound, the “Heart vitamin E concentration, 25th percentile” value ([6]; TCP supplemented, n = 3) was 0.02 nmol/g, the “Heart vitamin E concentration, 50th percentile” value ([6]; TCP supplemented, n = 3) was 0.23 nmol/g and the “Heart vitamin E concentration, 75th percentile” value ([6]; TCP supplemented, n = 3) was 0.26 nmol/g. The “Heart vitamin E concentration, mean” value ([6]; TCP supplemented, n = 3) was 0.17 nmol/g, the “Heart vitamin E concentration, 25th percentile” value ([6]; TE supplemented, n = 5) was 2.07 nmol/g and the “Heart vitamin E concentration, 50th percentile” value ([6]; TE supplemented, n = 5) was 6.70 nmol/g. The “Heart vitamin E concentration, 75th percentile” value ([6]; TE supplemented, n = 5) was 14.4 nmol/g, the “Heart vitamin E concentration, mean” value ([6]; TE supplemented, n = 5) was 8.85 nmol/g and the “effect of oral TE supplementation on skin concentration” value [7] was “significantly elevated”.

In the case of `CC(C)=CCC/C(C)=C/CC/C(C)=C/CC[C@]1(C)CCc2cc(O)cc(C)c2O1` [δTE, d-delta-tocotrienol], the “adipose concentration relative to controls” value [8] is reported as about 10 fold, the “Brain vitamin E concentration, 25th percentile” value [2] is reported as 0.09 nmol/g and the “Brain vitamin E concentration, 50th percentile” value [2] is reported as 0.15 nmol/g. For the same compound, the “Brain vitamin E concentration, 75th percentile” value [2] was 0.17 nmol/g, the “Brain vitamin E concentration, mean” value [2] was 0.13 nmol/g and the “concentration in liver tissue relative to that found in adipose” value [9] was “less than 10%”.

With d-alpha-tocotrienol [αTE] the “adipose concentration relative to controls” value [8] was about 10 fold, the “Brain vitamin E concentration, 25th percentile” value [2] was 0.03 nmol/g and the “Brain vitamin E concentration, 50th percentile” value [2] was 0.04 nmol/g. For the same compound, the “Brain vitamin E concentration, 75th percentile” value [2] was 0.05 nmol/g, the “Brain vitamin E concentration, mean” value [2] was 0.04 nmol/g and the “concentration in liver tissue relative to that found in adipose” value [9] was “less than 10%”. The “affinity of TTP to bind and transport, relative to αTCP” value [10] was 12%, the “effect on activity of HMG-CoA reductase” value (HMG-CoA reductase) was “suppresses the activity” and the “effect of oral TE supplementation on skin concentration” value [7] was “significantly elevated”.
